In ChEMBL document CHEMBL3045679, “Microwave-assisted synthesis and pharmacological studies of novel 5-deazaalloxazine derivatives” (2012):
Converted amounts (≈) assume the structure as drawn. The source made the active and inactive calls. The rule behind the calls is not given here.

What was measured:
Lipomyces lipofer [1] = test: Antifungal activity against Lipomyces lipofer NCIM 3252 at 1000 ug/disk after 72 hr by disk diffusion method; format: functional; details: NCIM 3252, 72 h, read-out: DIZ
Lipomyces lipofer [2] = test: Antifungal activity against Lipomyces lipofer NCIM 3252 at 500 ug/disk after 72 hr by disk diffusion method; format: functional; details: NCIM 3252, 72 h, read-out: DIZ
Candida albicans [3] = test: Antifungal activity against Candida albicans NCIM 3471 at 1000 ug/disk after 72 hr by disk diffusion method; format: functional
Candida albicans [4] = test: Antifungal activity against Candida albicans NCIM 3471 at 500 ug/disk after 72 hr by disk diffusion method; format: functional
Rhodotorula mucilaginosa [5] = test: Antifungal activity against Rhodotorula mucilaginosa NCIM 3174 at 1000 ug/disk after 72 hr by disk diffusion method; format: functional; details: NCIM 3174, 72 h, read-out: DIZ
Rhodotorula mucilaginosa [6] = test: Antifungal activity against Rhodotorula mucilaginosa NCIM 3174 at 500 ug/disk after 72 hr by disk diffusion method; format: functional
Aspergillus flavus [7] = test: Antifungal activity against Aspergillus flavus NCIM 535 at 1000 ug/disk after 72 hr by disk diffusion method; format: functional; details: NCIM 535, 72 h, read-out: DIZ
Aspergillus flavus [8] = test: Antifungal activity against Aspergillus flavus NCIM 535 at 500 ug/disk after 72 hr by disk diffusion method; format: functional
Aspergillus niger [9] = test: Antifungal activity against Aspergillus niger NCIM 1196 at 1000 ug/disk after 72 hr by disk diffusion method; format: functional
Aspergillus niger [10] = test: Antifungal activity against Aspergillus niger NCIM 1196 at 500 ug/disk after 72 hr by disk diffusion method; format: functional
Penicillium chrysogenum [11] = test: Antifungal activity against Penicillium chrysogenum NCIM 707 at 1000 ug/disk after 72 hr by disk diffusion method; format: functional; details: NCIM 707, 72 h, read-out: DIZ
Penicillium chrysogenum [12] = test: Antifungal activity against Penicillium chrysogenum NCIM 707 at 500 ug/disk after 72 hr by disk diffusion method; format: functional
Streptomyces albus [13] = test: Antibacterial activity against Streptomyces albus NCIM 2178 at 1000 ug/disk after 24 hr by disk diffusion method; format: functional
Streptomyces albus [14] = test: Antibacterial activity against Streptomyces albus NCIM 2178 at 500 ug/disk after 24 hr by disk diffusion method; format: functional, organism-based
Bacillus cereus [15] = test: Antibacterial activity against Bacillus cereus NCIM 2155 at 1000 ug/disk after 24 hr by disk diffusion method; format: functional; details: NCIM 2155, 24 h, read-out: DIZ
Bacillus cereus [16] = test: Antibacterial activity against Bacillus cereus NCIM 2155 at 500 ug/disk after 24 hr by disk diffusion method; format: functional; details: NCIM 2155, 24 h, read-out: DIZ
Bacillus subtilis [17] = test: Antibacterial activity against Bacillus subtilis NCIM 2063 at 1000 ug/disk after 24 hr by disk diffusion method; format: functional; details: NCIM 2063, 24 h, read-out: DIZ
Bacillus subtilis [18] = test: Antibacterial activity against Bacillus subtilis NCIM 2063 at 500 ug/disk after 24 hr by disk diffusion method; format: functional
Klebsiella aerogenes [19] = test: Antibacterial activity against Enterobacter aerogenes NCIM 2239 at 1000 ug/disk after 24 hr by disk diffusion method; format: functional; details: NCIM 2239, 24 h, read-out: DIZ
Klebsiella aerogenes [20] = test: Antibacterial activity against Enterobacter aerogenes NCIM 2239 at 500 ug/disk after 24 hr by disk diffusion method; format: functional
Pseudomonas aeruginosa [21] = test: Antibacterial activity against Pseudomonas aeruginosa NCIM 2200 at 1000 ug/disk after 24 hr by disk diffusion method; format: functional; details: NCIM 2200, 24 h, read-out: DIZ
Pseudomonas aeruginosa [22] = test: Antibacterial activity against Pseudomonas aeruginosa NCIM 2200 at 500 ug/disk after 24 hr by disk diffusion method; format: functional; details: NCIM 2200, 24 h, read-out: DIZ
Escherichia coli [23] = test: Antibacterial activity against Escherichia coli NCIM 2065 at 1000 ug/disk after 24 hr by disk diffusion method; format: functional; details: NCIM 2065, 24 h, read-out: DIZ
Escherichia coli [24] = test: Antibacterial activity against Escherichia coli NCIM 2065 at 500 ug/disk after 24 hr by disk diffusion method; format: functional; details: NCIM 2065, 24 h, read-out: DIZ
Bacillus subtilis [25] = test: Antibacterial activity against Bacillus subtilis NCIM 2063 after 24 hr by broth dilution assay; format: functional; details: NCIM 2063, 24 h
Klebsiella aerogenes [26] = test: Antibacterial activity against Enterobacter aerogenes NCIM 2239 after 24 hr by broth dilution assay; format: functional; details: NCIM 2239, 24 h
Pseudomonas aeruginosa [27] = test: Antibacterial activity against Pseudomonas aeruginosa NCIM 2200 after 24 hr by broth dilution assay; format: functional; details: NCIM 2200, 24 h
Escherichia coli [28] = test: Antibacterial activity against Escherichia coli NCIM 2065 after 24 hr by broth dilution assay; format: functional; details: NCIM 2065, 24 h
Lipomyces lipofer [29] = test: Antifungal activity against Lipomyces lipofer NCIM 3252 after 72 hr by broth dilution assay; format: functional; details: NCIM 3252, 72 h
Aspergillus flavus [30] = test: Antifungal activity against Aspergillus flavus NCIM 535 after 72 hr by broth dilution assay; format: functional; details: NCIM 535, 72 h
Aspergillus niger [31] = test: Antifungal activity against Aspergillus niger NCIM 1196 after 72 hr by broth dilution assay; format: functional; details: NCIM 1196, 72 h
Bacillus cereus [32] = test: Antibacterial activity against Bacillus cereus NCIM 2155 after 24 hr by broth dilution assay; format: functional; details: NCIM 2155, 24 h
Candida albicans [33] = test: Antifungal activity against Candida albicans NCIM 3471 after 72 hr by broth dilution assay; format: functional; details: NCIM 3471, 72 h
Rhodotorula mucilaginosa [34] = test: Antifungal activity against Rhodotorula mucilaginosa NCIM 3174 after 72 hr by broth dilution assay; format: functional; details: NCIM 3174, 72 h
Penicillium chrysogenum [35] = test: Antifungal activity against Penicillium chrysogenum NCIM 707 after 72 hr by broth dilution assay; format: functional; details: NCIM 707, 72 h

| SMILES | zone of inhibition at 1000 µg/disc (Lipomyces lipofer [1]) | zone of inhibition at 500 µg/disc (Lipomyces lipofer [2]) | zone of inhibition at 1000 µg/disc (Rhodotorula mucilaginosa [5]) | diameter of the inhibition zone (DIZ) (Rhodotorula mucilaginosa [6]) | zone of inhibition at 1000 µg/disc (Aspergillus flavus [7]) | diameter of the inhibition zone (DIZ) (Aspergillus flavus [8]) | zone of inhibition at 1000 µg/disc (Penicillium chrysogenum [11]) | diameter of the inhibition zone (DIZ) (Penicillium chrysogenum [12]) | diameter of the inhibition zone (DIZ) (Streptomyces albus [13]) | diameter of the inhibition zone (DIZ) (Streptomyces albus [14]) | zone of inhibition at 1000 µg/disc (Bacillus cereus [15]) | zone of inhibition at 500 µg/disc (Bacillus cereus [16]) | zone of inhibition at 1000 µg/disc (Bacillus subtilis [17]) | zone of inhibition at 1000 µg/disc (Klebsiella aerogenes [19]) | zone of inhibition at 1000 µg/disc (Pseudomonas aeruginosa [21]) | zone of inhibition at 500 µg/disc (Pseudomonas aeruginosa [22]) | zone of inhibition at 1000 µg/disc (Escherichia coli [23]) | zone of inhibition at 500 µg/disc (Escherichia coli [24]) | MIC (Bacillus subtilis [25]) | MIC (Klebsiella aerogenes [26]) | further results |
| --- | --- | --- | --- | --- | --- | --- | --- | --- | --- | --- | --- | --- | --- | --- | --- | --- | --- | --- | --- | --- | --- |
| COc1cccc2cc3c(=O)[nH]c(=S)[nH]c3nc12 | 14 mm | 11 mm | 9 mm | inactive | 13 mm | inactive | 12 mm | inactive | inactive | inactive | 12 mm | 9 mm | 13 mm | 12 mm | 13 mm | 10 mm | 11 mm | 9 mm | 7.8 µg/mL (≈ 30.1 µM) | 31.2 µg/mL (≈ 120 µM) | diameter of the inhibition zone (DIZ) (Candida albicans [3]): inactive; diameter of the inhibition zone (DIZ) (Candida albicans [4]): inactive; zone of inhibition at 1000 µg/disc (Aspergillus niger [9]; NCIM 1196, 72 h, read-out: DIZ): 10 mm; zone of inhibition at 500 µg/disc (Aspergillus niger [10]; NCIM 1196, 72 h, read-out: DIZ): 8 mm; zone of inhibition at 500 µg/disc (Bacillus subtilis [18]; NCIM 2063, 24 h, read-out: DIZ): 10 mm; diameter of the inhibition zone (DIZ) (Klebsiella aerogenes [20]): inactive; MIC (Pseudomonas aeruginosa [27]): 7.8 µg/mL (≈ 30.1 µM); MIC (Escherichia coli [28]): 62.5 µg/mL (≈ 241 µM); MIC (Lipomyces lipofer [29]): 125 µg/mL (≈ 482 µM); MIC (Aspergillus flavus [30]): 125 µg/mL (≈ 482 µM); MIC (Aspergillus niger [31]): 125 µg/mL (≈ 482 µM); MIC (Bacillus cereus [32]): 62.5 µg/mL (≈ 241 µM) |
| COc1ccc2nc3[nH]c(=O)[nH]c(=O)c3cc2c1 | 11 mm | 9 mm | 10 mm | inactive | 9 mm | inactive | 9 mm | inactive | inactive | inactive | 12 mm | 9 mm | 9 mm | 13 mm | 13 mm | 9 mm | 12 mm | 10 mm | 62.5 µg/mL (≈ 257 µM) | 3.9 µg/mL (≈ 16 µM) | zone of inhibition at 1000 µg/disc (Candida albicans [3]; NCIM 3471, 72 h, read-out: DIZ): 10 mm; zone of inhibition at 500 µg/disc (Candida albicans [4]; NCIM 3471, 72 h, read-out: DIZ): 9 mm; diameter of the inhibition zone (DIZ) (Aspergillus niger [9]): inactive; diameter of the inhibition zone (DIZ) (Aspergillus niger [10]): inactive; diameter of the inhibition zone (DIZ) (Bacillus subtilis [18]): inactive; zone of inhibition at 500 µg/disc (Klebsiella aerogenes [20]; NCIM 2239, 24 h, read-out: DIZ): 10 mm; MIC (Pseudomonas aeruginosa [27]): 31.2 µg/mL (≈ 128 µM); MIC (Escherichia coli [28]): 7.8 µg/mL (≈ 32.1 µM); MIC (Lipomyces lipofer [29]): 31.2 µg/mL (≈ 128 µM); MIC (Candida albicans [33]): 31.2 µg/mL (≈ 128 µM); MIC (Rhodotorula mucilaginosa [34]): 15.6 µg/mL (≈ 64.1 µM); MIC (Penicillium chrysogenum [35]): 62.5 µg/mL (≈ 257 µM); MIC (Bacillus cereus [32]): 31.2 µg/mL (≈ 128 µM) |
